Test results from patent publication US7399868B2, “4-(Heteroaryl-methyl and substituted heteroaryl-methyl)-imidazole-2-thiones acting as alpha2 adrenergic agonists” (Allergan, Inc., priority 2004, dated 2008).

Legend:
[1] = target: T1, alpha2B adrenergic receptor (Homo sapiens, UniProt P18089); experiment: Receptor Selection and Amplification Technology (RSAT) assay, alpha2B; assay type: cell-based; conditions: ratio of maximal effect to that of standard full agonist brimonidine (UK14304)
T1 construct: expressed in transfected cells; host or cells: NIH-3T3
T1 sequence (P18089 1-450): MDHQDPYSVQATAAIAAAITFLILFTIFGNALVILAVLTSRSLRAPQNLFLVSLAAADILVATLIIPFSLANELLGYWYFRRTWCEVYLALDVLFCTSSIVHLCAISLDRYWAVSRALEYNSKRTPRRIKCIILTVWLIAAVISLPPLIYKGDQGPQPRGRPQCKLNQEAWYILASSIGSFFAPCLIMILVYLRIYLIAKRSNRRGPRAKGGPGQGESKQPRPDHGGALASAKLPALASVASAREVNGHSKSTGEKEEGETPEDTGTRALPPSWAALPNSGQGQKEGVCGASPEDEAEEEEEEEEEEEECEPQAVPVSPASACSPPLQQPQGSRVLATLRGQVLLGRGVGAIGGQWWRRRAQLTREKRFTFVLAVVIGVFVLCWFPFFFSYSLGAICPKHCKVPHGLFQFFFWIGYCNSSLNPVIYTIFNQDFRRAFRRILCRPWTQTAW
Source text: (§1) The imidazole-2-thione compounds of the invention are agonists of alpha2 adrenergic receptors. […] Al., 1995, Pharmacol. Toxicol. 76, pp. 308-311 (incorporated herein by reference) and is also described below. Another reference pertinent to this assay is Conklin et al. (1993) Nature 363:274-6, also incorporated herein by reference.
(§2) Receptor Selection and Amplification Technology (RSAT) Assay
The RSAT assay measures a receptor-mediated loss of contact inhibition that results in selective proliferation of receptor-containing cells in a mixed population of confluent cells. The increase in cell number is assessed with an appropriate transfected marker gene such as ∃-galactosidase, the activity of which can be easily measured in a 96-well format. Receptors that activate the G protein, Gq, elicit this response. Alpha2 receptors, which normally couple to Gi, activate the RSAT response when coexpressed with a hybrid Gq protein that has a Gi receptor recognition domain, called Gq/i5.
NIH-3T3 cells are plated at a density of 2×10^6 cells in 15 cm dishes and maintained in Dulbecco's modified Eagle's medium supplemented with 10% calf serum. One day later, cells are cotransfected by calcium phosphate precipitation with mammalian expression plasmids encoding p-SV-β-galactosidase (5-10 μg), receptor (1-2 μg) and G protein (1-2 μg). 40 μg salmon sperm DNA may also be included in the transfection mixture. Fresh media is added on the following day and 1-2 days later, cells are harvested and frozen in 50 assay aliquots. Cells are thawed and 100 μl added to 100 μl aliquots of various concentrations of drugs in triplicate in 96-well dishes. Incubations continue 72-96 hr at 37° C. After washing with phosphate-buffered saline, ∃-galactosidase enzyme activity is determined by adding 200 μl of the chromogenic substrate (consisting of 3.5 mM o-nitrophenyl-β-D-galactopyranoside and 0.5% nonidet P-40 in phosphate buffered saline), incubating overnight at 30° C. and measuring optical density at 420 nm. The absorbance is a measure of enzyme activity, which depends on cell number and reflects a receptor-mediated cell proliferation. The efficacy or intrinsic activity is calculated as a ratio of the maximal effect of the drug to the maximal effect of a standard full agonist for each receptor subtype. Brimonidine, also called UK14304, the chemical structure of which is shown below, is used as the standard agonist for the alpha2A, alpha2B and alpha2C receptors.
The results of the RSAT assay with several exemplary compounds of the invention are disclosed in Table 1 above together with the chemical formulas of these examplary compounds. NA stands for “not active” at concentrations less than 10 micromolar.

male Sprague-Dawley rats = experiment: Sedative activity (exploratory behavior/locomotor) in rats; assay type: in vivo, rat; conditions: intraperitoneally, up to a dose of 1 mg/kg
Description: To test sedation, six male Sprague-Dawley rats are given up to 3 mg/kg of the test compound in a saline or DMSO vehicle by intraperitoneal injection (i.p.). Sedation is graded 30 minutes following administration of the drug by monitoring locomotor skills as follows.
The Sprague-Dawley rats are weighed and 1 ml/kg body weight of an appropriate concentration (ie. 3 mg/ml for a final dose of 3 mg/kg) drug solution is injected intraperitoneally. Typically the test compound is formulated in approximately 10 to 50% DMSO. The results are compared to controls that are injected with 1 ml/kg saline or 10 to 50% DMSO. Rat activity is then determined 30 minutes after injection of the drug solution. Rats are placed in a dark covered chamber and a digicom analyzer (Omnitech Electronic) quantitates their exploratory behavior for a five-minute period. The machine records each time the rat interrupts an array of 32 photoelectric beams in the X and Y orientation.
Effects on Cardiovascular System

[2] = target: T2, alpha2C adrenergic receptor (Homo sapiens, UniProt P18825); experiment: Receptor Selection and Amplification Technology (RSAT) assay, alpha2C; assay type: cell-based; conditions: ratio of maximal effect to that of standard full agonist brimonidine (UK14304)
T2 construct: expressed in transfected cells; host or cells: NIH-3T3
T2 sequence (P18825 1-462): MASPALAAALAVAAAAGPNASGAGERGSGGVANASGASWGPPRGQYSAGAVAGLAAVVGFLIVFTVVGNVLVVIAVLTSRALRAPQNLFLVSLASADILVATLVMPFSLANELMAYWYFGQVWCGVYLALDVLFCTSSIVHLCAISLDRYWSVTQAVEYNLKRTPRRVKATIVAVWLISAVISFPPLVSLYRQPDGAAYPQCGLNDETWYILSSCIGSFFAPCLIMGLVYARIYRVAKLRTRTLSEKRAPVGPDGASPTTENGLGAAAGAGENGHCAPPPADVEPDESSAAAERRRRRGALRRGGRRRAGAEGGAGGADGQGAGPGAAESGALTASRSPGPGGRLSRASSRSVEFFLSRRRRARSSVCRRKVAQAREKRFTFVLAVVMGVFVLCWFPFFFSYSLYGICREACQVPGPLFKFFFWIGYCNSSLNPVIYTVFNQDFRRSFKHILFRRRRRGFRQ
Source text: as §1, §2
The RSAT assay measures a receptor-mediated loss of contact inhibition that results in selective proliferation of receptor-containing cells in a mixed population of confluent cells. The increase in cell number is assessed with an appropriate transfected marker gene such as ∃-galactosidase, the activity of which can be easily measured in a 96-well format. […]
NIH-3T3 cells are plated at a density of 2×10^6 cells in 15 cm dishes and maintained in Dulbecco's modified Eagle's medium supplemented with 10% calf serum. […] After washing with phosphate-buffered saline, ∃-galactosidase enzyme activity is determined by adding 200 μl of the chromogenic substrate (consisting of 3.5 mM o-nitrophenyl-β-D-galactopyranoside and 0.5% nonidet P-40 in phosphate buffered saline), incubating overnight at 30° C. and measuring optical density at 420 nm. The absorbance is a measure of enzyme activity, which depends on cell number and reflects a receptor-mediated cell proliferation. […]

[3] = test system: rats with ligated L5 and L6 spinal nerves; experiment: Chung model of neuropathic pain (tactile allodynia, von Frey hairs); assay type: in vivo, rat; conditions: 30 min following drug administration, p<0.001 compared to pretreatment
Source text: Alleviation of Chronic Pain
A model in accordance with Kim and Chung 1992, Pain […], pp 355-363 (Chung model), for chronic pain (in particular peripheral neuropathy) involves the surgical ligation of the L5 (and optionally the L6) spinal nerves on one side in experimental animals. Rats recovering from the surgery gain weight and display a level of general activity similar to that of normal rats. However, these rats develop abnormalities of the foot, wherein the hindpaw is moderately everted and the toes are held together. More importantly, the hindpaw on the side affected by the surgery appears to become sensitive to pain from low-threshold mechanical stimuli, such as that producing a faint sensation of touch in a human, within about 1 week following surgery. This sensitivity to normally non-painful touch is called “tactile allodynia” and lasts for at least two months. […]
Tactile allodynia is measured prior to and 30 minutes after drug administration using von Frey hairs that are a series of fine hairs with incremental differences in stiffness. […] The applied force has been calculated to range from 0.41 to 15.1 grams. […] The 50% paw withdrawal threshold is determined using the method of Dixon, W. J., Ann. […] The post-drug threshold is compared to the pre-drug threshold and the percent reversal of tactile sensitivity is calculated based on a normal threshold of 15.1 grams. […]

| SMILES | Intrinsic Activity Alpha 2B [1] | other results |
| --- | --- | --- |
| S=c1[nH]cc(Cn2ccc3c(Cl)cccc32)[nH]1 [Compound 1, 4-(4-chloro-indol-1-ylmethyl)-1,3-dihydro-imidazole-2-thione] | 1.17 | – |
| Cc1cccc2ccn(Cc3c[nH]c(=S)[nH]3)c12 [Compound 2, 4-(7-methyl-indol-1-ylmethyl)-1,3-dihydro-imidazole-2-thione] | 1.01 | – |
| Fc1cccc2ccn(Cc3c[nH]c(=S)[nH]3)c12 [Compound 3, 4-(7-fluoro-indol-1-ylmethyl)-1,3-dihydro-imidazole-2-thione] | 1.07 | sedative effect (male Sprague-Dawley rats): no sedative effect |
| S=c1[nH]cc(Cn2ccc3cccc(Cl)c32)[nH]1 [Compound 4, 4-(7-chloro-indol-1-ylmethyl)-1,3-dihydro-imidazole-2-thione] | 1.17 | – |
| S=c1[nH]cc(Cn2ccc3cccc(Br)c32)[nH]1 [Compound 5, 4-(7-Bromo-indol-1-ylmethyl)-1,3-dihydro-imidazole-2-thione] | 1.01 | sedative effect (male Sprague-Dawley rats): no sedative effect; Intrinsic Activity Alpha 2C [2]: 0.77 |
| S=c1[nH]cc(Cn2ccc3ccc(Cl)c(Cl)c32)[nH]1 [Compound 6, 4-(6,7-Dichloro-indol-1-ylmethyl)-1,3-dihydro-imidazole-2-thione] | 0.98 | – |
| S=c1[nH]cc(Cn2ccc3ccnc(Cl)c32)[nH]1 [Compound 7, 4-(7-chloro-pyrrolo[2,3-c]pyridin-1-ylmethyl)-1,3-dihydro-imidazole-2-thione] | 1.5 | – |
| S=c1[nH]cc(Cn2ccc3ccc(Cl)nc32)[nH]1 [Compound 8, 4-(6-Chloro-pyrrolo[2,3-b]pyridin-1-ylmethyl)-1,3-dihydro-imidazole-2-thione] | 0.76 | – |
| Cc1cccc(C(C)c2c[nH]c(=S)[nH]2)n1 (stereo not drawn) [Compound 9, 4-[1-(6-methyl-pyridin-2-yl)-ethyl]-1,3-dihydro-imidazole-2-thione] | 1.16 | – |
| S=c1[nH]cc(Cc2cccs2)[nH]1 [Compound 10, 4-thiophen-2-ylmethyl-1,3-dihydro-imidazole-2-thione] | 1.09 | – |
| S=c1[nH]cc(CN2CCCc3ccccc32)[nH]1 [Compound 11, 4-(3,4-dihydro-2H-quinolin-1-ylmethyl)-1,3-dihydro-imidazole-2-thione] | 1.13 | – |
| CC(c1c[nH]c(=S)[nH]1)c1ccnc2c1CCCC2 (stereo not drawn) [Compound 12, 4-[1-(5,6,7,8-tetrahydro-quinolin-4-yl)-ethyl]-1,3-dihydro-imidazole-2-thione] | 0.99 | – |
| CC(c1c[nH]c(=S)[nH]1)c1coc2ccccc12 (stereo not drawn) [Compound 14, 4-(1-benzofuran-3-yl-ethyl)-1,3-dihydro-imidazole-2-thione] | 1.0 | % Pain Reversal ([3]; 30 μg/kg i.p.): 20%; % Pain Reversal ([3]; 300 μg/kg i.p.): 80% |
